One data set deals with Lamp1-GFP/ATG5-KO MEFs. Put plainly: Evaluation of activity to induce alternative autophagy (fluorescent bright spots due to aggregation of Lamp1-GFP). The class given is cell-based, mouse. The conditions noted are these: for alternative autophagy-inducing activity (FIG. 16): Example 9, same method as Example 1; for ability to induce alternative autophagy, comparative statement: as shown in Examples. As for the experimental part: First, by using a retrovirus, a gene for expression of a Lamp1-GFP fusion protein (also referred to as “Lamp1-GFP”) was introduced into ATG5-deficient mouse embryonic fibroblasts (also referred to as “ATG5-KO MEFs”). Then, a cell with high expression of Lamp1-GFP was cloned and prepared as Lamp1-GFP/ATG5-KO MEFs.
The ATG5-KO MEFs were prepared by introducing a gene for expression of SV40T antigen into MEFs established from an ATG5-deficient C57/B6J mouse at a fetal age of 14.5 days by an electroporation method using an Nucleofector system (manufactured by amaxa) for immortalization. In addition, the retrovirus was prepared by introducing an MSCV-Lamp1-GFP (zeocin resistant) vector into plat E cells, which were retrovirus packaging cells.
To the Lamp1-GFP/ATG5-KO MEFs seeded at 1×10^4/96 wells on the preceding day, each of the test compounds was added at a final concentration of 50 μM, and the Lamp1-GFP/ATG5-KO MEFs were cultured at 37° C. under 10% CO2 for 5 hours.
Then, for observation, Hoechst 33342 (manufactured by invitrogen) was added at a final concentration of 1 ng/ml to each culture liquid, followed by incubation for 5 minutes. Then, the culture liquid was replaced with 100 μl of HBSS. Subsequently, five visual fields per well were photographed at random with IN CELL ANALYZER 1000 (manufactured by GE Healthcare).
Then, the thus obtained novel benzothiophene compounds (TMD-459 and TMD-460) were evaluated for the ability to induce alternative autophagy by the same method as that described in Example 1. Note that, in Example 10, each of the compounds was added to culture liquids at final concentrations of 10, 20, 30, 40, and 50 μM. In addition, compound #9 was also added as a reference example to culture liquids at the above-described concentrations. Then, 5 hours after the addition of each of these compounds, five visual fields per each well were photographed at random with IN CELL ANALYZER 1000, and the presence or absence of fluorescent bright spots due to the aggregation of Lamp1-GFP was visually determined.

For data set [1], the system named is tumor cell line 53T implanted in wild-type C57/B6J mice. In words: In vivo anticancer activity, tumor volume in cancer-bearing mice implanted with 53T. More on the design: species or system mouse. The following applies: for anticancer activity (FIG. 17, tumor volumes in cancer-bearing mice): Example 9. The protocol:
A tumor cell line (also referred to as “53T”) established from a tumor developed spontaneously in a p53 deficient C57/B6J mouse was implanted at 4 sites in the ventral skin of each of wild-type C57/B6J mice at 3×10^5 cells per site. From the following day, the compounds were administered to the mice every other day five times in total. The concentration of each compound was 0.4 μmol/(50 μl DMSO+100 μl PBS)/mouse/administration. In addition, a negative control group to which only the same amount of DMSO was administered was prepared. Then, 21 days (3 weeks) after the implantation, the tumor diameters of the mice were measured, and the tumor volumes were calculated, and compared with that of the control group.
The 53T was implanted at 4 sites in the ventral skin of each of wild-type C57/B6J mice at 3×10^5 cells per site. From the following day, 0 (DMSO alone), 5, 10, or 20 μM of each of compounds #09 and #13 was administered to six mice every other day five times in total. Then, 21 days (3 weeks) after the implantation, the tumor diameters of the mice were measured, and the tumor volumes were calculated. FIGS. 9 and 11 show the obtained results. Note that, in FIGS. 9 and 11, each point indicates the average volume of the tumors at the four sites in a mouse.
In addition, in the same manner as described above, the 53T was implanted in mice, and, from the following day, each of compound #09 at a concentration of 10 μM and compound #13 at a concentration of 5 μM was administered to four cancer-bearing mice every other day five times in total. Then, 21 days (3 weeks) after the implantation, the tumor diameters of the mice were measured, and the tumor volumes were calculated. In addition, a negative control to which DMSO was administered was also prepared, and the tumor volume was calculated in the same manner. In addition, these experiments were conducted three times independently of each other. FIGS. 10 and 12 show the obtained results. Note that in FIGS. 10 and 12, each point indicates the average volume of the tumors at the four sites in a mouse.

Data set [2] in a line: Cell-killing effect (necrosis) of analogous compounds. The class given is cell-based. The conditions noted are these: even when added at a low concentration.
In data set [3] the test system is mouse tumor cell line 53T. In words: Evaluation of in vitro anticancer activity (Cell titer blue, cell death induction rate). The class given is cell-based. The arrangement: key: (CTB of negative control − CTB treated)/CTB of negative control. The conditions noted are these: 24 hours, CTB. As for the experimental part:
First, the mouse tumor cell line 53T was seeded at 2×10^4/well on 96 well plates. Then, on the following day, each of compounds #09 and #13 dissolved in DMSO was added at a final concentration of 1, 5, 10, 20, or 50 μM. In addition, a negative control to which only DMSO was added was prepared. Subsequently, the cells were cultured at 37° C. under 10% CO2 for 24 hours. Then, by using Cell titer blue (CTB) (manufactured by Promega) according to the attached protocol, the amount of the fluorescence of each well of the cells 10 minutes after the addition of the CTB reagent was measured as a CTB measurement value of the cells brought into contact with compound #09 or #13. On the basis of such measurement values, the cell death induction rate of each of compounds #09 and #13 was calculated according to the following formula. Cell death induction rate=(CTB measurement value of negative control−CTB measurement value of cells to which compound was added)/CTB measurement value of negative control

For data set [4], the system named is p53-deficient cancer cells (53T). Put plainly: Alternative autophagy-inducing activity in tumor cell line (Lamp2 aggregation, fluorescence and electron microscope). Format: cell-based, mouse. The following applies: 20 μM, six hours, FIGS. 3 to 6. As for the experimental part:
In the same manner as in the above-described <Evaluation of Alternative Autophagy-Inducing Activity> using the Lamp1-GFP/ATG5-KO MEFs, each of the compounds #09 and #13 was added at a final concentration of 20 μM to a culture liquid of the tumor cell line (also referred to as “53T”) established from the tumor developed spontaneously in the p53 deficient C57/B6J mouse. […] Note that, in this evaluation, Lamp2 was used instead of Lamp1. FIGS. 3 to 6 show the obtained results.

Data set [5] deals with fibroblasts (cancer cells) immortalized with SV40. In words: Activity to induce cell death specific to cancer cells: cancer cells (CTB survival rate). The class given is cell-based. The following applies: 20 μM, FIGS. 7 and 8.
Data set [6] concerns primary cultured fibroblasts (normal cells). In words: Activity to induce cell death specific to cancer cells: normal cells (CTB survival rate). The class given is cell-based. The conditions noted are these: 20 μM, FIGS. 7 and 8. The protocol: CTB measurement values were obtained in the same manner as in the above-described <Evaluation of In Vitro Anticancer Activity> by adding each of compounds #09 and #13 at a final concentration of 20 μM to culture liquids of primary cultured fibroblasts (normal cells) and fibroblasts (cancer cells) immortalized with SV40. On the basis of the obtained CTB measurement values, the cell survival rate was calculated over time. Note that the cell survival rate was defined as 1-cell death induction rate. FIGS. 7 and 8 show the obtained results.

For data set [7], the system named is 53T implanted in wild-type C57/B6J mice. Put plainly: Survival rate of cancer-bearing mice. Format: in vivo, mouse. The conditions noted are these: 10 μM every other day 5 times; compared with etoposide at 10 μM, FIGS. 13 to 15.

Turning to `CCOC(=O)c1c(NC(C)=O)sc2c(OCCN(CC)CC)c(-c3ccccc3)ccc12` [TMD-459, Ethyl 2-Acetylamino-7-[2-(N,N-diethylamino)ethyloxy]-6-phenylbenzo[b]thiophene-3-carboxylate], the “aggregation of Lamp1-GFP, visually determined” value with Lamp1-GFP/ATG5-KO MEFs (concentrations of 10 μM or higher (10 to 50 μM), 5 hours) was “aggregation of the Lamp1-GFP was observed in all the cells”.
Consider `CCOC(=O)c1c(NC(=O)c2ccccc2)sc2c(O)c(Br)cc(Br)c12` [compound 42], for which the “anticancer activity (FIG. 17, tumor volumes in cancer-bearing mice)” value in data set [1] was “did not have anticancer activity”. The “alternative autophagy-inducing activity (FIG. 16)” value with Lamp1-GFP/ATG5-KO MEFs is “no alternative autophagy-inducing activity”.
For the molecule `CCOC(=O)c1c(NC(C)=O)sc2c(OCC(O)CNC3CCCCC3)c(Br)ccc12` (centres unmarked) [compound 36], the “cell-killing effect (necrosis)” value in data set [2] is “strong cell-killing effect (necrosis)”.
On to `N=C(Nc1ccc2c(c1)OCCO2)Nc1nc(-c2cccs2)cc(C(F)(F)F)n1` [compound 13], for which the “Cell death induction rate” value in data set [3] (1 μM) was 0; in data set [3] (5 μM), 0.1776; in data set [3] (10 μM) it was 0.4559; in data set [3] (20 μM) it was 0.768; in data set [3] (50 μM) it was 0.9426. Besides, the “aggregation of Lamp2 and occurrence of autophagy” value in data set [4] was “aggregation of the lysosomal protein Lamp2 and occurrence of autophagy were observed”. Further, the “in vivo anticancer activity (tumor volume vs control group, FIG. 2)” value in data set [1] (0.4 μmol/mouse/administration, every other day five times, 21 days after implantation) is listed as “selected as compounds having in vivo anticancer activity”. Besides, the “in vivo anticancer activity (tumor volume, FIGS. 9 to 12)” value in data set [1] (5, 10, or 20 μM every other day five times, 21 days after implantation) is listed as “exhibited in vivo anticancer activity”. Further, the “in vivo anticancer activity at low concentration (FIG. 11)” value in data set [1] (administered at 5 μM) was “exhibited remarkable anticancer activity”. Besides, the “cell death-inducing activity on cancer cells (cell survival rate over time)” value in data set [5] is on record as “exhibited remarkable cell death-inducing activity on the cancer cells”. For the same molecule, in data set [6], the “cell death of normal cells (cell survival rate over time)” value is “hardly induced cell death of the normal cells”. Besides, the “improvement effect on the survival rate of the cancer-bearing mice” value in data set [7] is “higher improvement effect on the survival rate of the cancer-bearing mice than etoposide”.
`CCOC(=O)c1c(NC(C)=O)sc2c(Cl)c(/C=N/c3ccccc3)cc(Br)c12` [compound 44]: the “anticancer activity (FIG. 17, tumor volumes in cancer-bearing mice)” value in data set [1] is listed as “did not have anticancer activity”. For the same molecule, in the data set on Lamp1-GFP/ATG5-KO MEFs, the “alternative autophagy-inducing activity (FIG. 16)” value is given as “no alternative autophagy-inducing activity”.
`CCOC(=O)c1c(NC(C)=O)sc2c(OCCN(CC)CC)c(-c3ccc(OC)cc3)ccc12` [formula (1-10)]: the “ability to induce alternative autophagy, comparative statement” value (“ability to induce alternative autophagy” below) in the data set with Lamp1-GFP/ATG5-KO MEFs was “ability to induce alternative autophagy is higher”.
Still for that read-out and setting: under `CCOC(=O)c1c(NC(C)=O)sc2c(OCCN(CC)CC)c(-c3ccc(O)cc3)ccc12` [formula (1-15)] stands “ability to induce alternative autophagy is higher”.
For the molecule `CCOC(=O)c1c(NC(C)=O)sc2c(NC(C)=O)cccc12` [compound 38], the “anticancer activity (FIG. 17, tumor volumes in cancer-bearing mice)” value in data set [1] is recorded as “did not have anticancer activity”. In addition, in the data set on Lamp1-GFP/ATG5-KO MEFs, the “alternative autophagy-inducing activity (FIG. 16)” value is reported as “no alternative autophagy-inducing activity”.
The matching figures for `CCCC(=O)c1c(NC(C)=O)sc2c(Cl)c(/C=N\CCCCO)ccc12` [compound 46]: “did not have anticancer activity” and “no alternative autophagy-inducing activity”.
As for `CCOC(=O)c1c(NC(C)=O)sc2c(OCCN(CC)CC)c(-c3ccccc3SC)ccc12` [formula (1-14)], the “ability to induce alternative autophagy” value in the data set with Lamp1-GFP/ATG5-KO MEFs is listed as “ability to induce alternative autophagy is higher”.
Regarding `CCOC(=O)c1c(NC(C)=O)sc2c(OC(C)=O)cccc12` [compound 37], in data set [1], the “anticancer activity (FIG. 17, tumor volumes in cancer-bearing mice)” value is given as “did not have anticancer activity”. Also, in the data set on Lamp1-GFP/ATG5-KO MEFs, the “alternative autophagy-inducing activity (FIG. 16)” value was “no alternative autophagy-inducing activity”.
Take `CCOC(=O)c1c(NC(C)=O)sc2c(OCCN(CC)CC)c(-c3ccsc3)ccc12` [formula (1-18)]: in the data set on Lamp1-GFP/ATG5-KO MEFs, the “ability to induce alternative autophagy” value was “ability to induce alternative autophagy is higher”.
In the case of `C=CC/N=C/c1cc(C)c2c(C(=O)OCC)c(NC(C)=O)sc2c1Cl` [compound 47], the “cell-killing effect (necrosis)” value in data set [2] was “strong cell-killing effect (necrosis)”.
For the molecule `COc1c(Br)ccc2c(C(=O)O)c(NC(C)=O)sc12` [compound 40], the “anticancer activity (FIG. 17, tumor volumes in cancer-bearing mice)” value in data set [1] is recorded as “did not have anticancer activity”. Also, the “alternative autophagy-inducing activity (FIG. 16)” value with Lamp1-GFP/ATG5-KO MEFs is “no alternative autophagy-inducing activity”.
For `CCOC(=O)c1c(NC(C)=O)sc2c(OCCN(CC)CC)c(-c3cccs3)ccc12` [formula (1-17)], in the data set on Lamp1-GFP/ATG5-KO MEFs, the “ability to induce alternative autophagy” value is “ability to induce alternative autophagy is higher”.

Source of the values: US10954222B2, “Benzothiophene compound, alternative autophagy-inducing agent and anticancer agent including the compound as active ingredient, and method for screening for compound having anticancer activity” (National University Corporation Tokyo Medical and Dental …, priority 2012, dated 2021).
